Experimental data: PubChem BioAssay AID1963833 (Molecular Pharmacology Branch, DTP, NCI, 2024)

Test system: 883617-216-R-J1-PDC complex spheroid viability
Experiment: Anticancer human tumor 883617-216-R-J1-PDC patient-derived bladder carcinoma cell line growth inhibition [POLQ]
Conditions: for IC50: curve of first compound; for viability, T/C: stronger effect = lower value
Outline: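 Three-cell-type spheroids modelling solid tumor plus stroma served as the readout system; POL inhibitors were tested individually and in combination, concentration ranges set by clinical Cmax where known.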

[1] = second compound 0.0316 µM, first compound 0.0316 µM
[2] = second compound 0.0316 µM, first compound 0.1 µM
[3] = second compound 0.0316 µM, first compound 0.316 µM
[4] = second compound 0.0316 µM, first compound 1 µM
[5] = second compound 0.0316 µM, first compound 3.16 µM
[6] = second compound 0.0316 µM, first compound 10 µM
[7] = second compound 0.1 µM, first compound 0.0316 µM
[8] = second compound 0.1 µM, first compound 0.1 µM
[9] = second compound 0.1 µM, first compound 0.316 µM
[10] = second compound 0.1 µM, first compound 1 µM
[11] = second compound 0.1 µM, first compound 3.16 µM
[12] = second compound 0.1 µM, first compound 10 µM
[13] = second compound 0.316 µM, first compound 0.0316 µM
[14] = second compound 0.316 µM, first compound 0.1 µM
[15] = second compound 0.316 µM, first compound 0.316 µM
[16] = second compound 0.316 µM, first compound 1 µM
[17] = second compound 0.316 µM, first compound 3.16 µM
[18] = second compound 0.316 µM, first compound 10 µM
[19] = second compound 1 µM, first compound 0.0316 µM
[20] = second compound 1 µM, first compound 0.1 µM
[21] = second compound 1 µM, first compound 0.316 µM
[22] = second compound 1 µM, first compound 1 µM
[23] = second compound 1 µM, first compound 3.16 µM
[24] = second compound 1 µM, first compound 10 µM
[25] = second compound 3.16 µM, first compound 0.0316 µM
[26] = second compound 3.16 µM, first compound 0.1 µM
[27] = second compound 3.16 µM, first compound 0.316 µM
[28] = second compound 3.16 µM, first compound 1 µM
[29] = second compound 3.16 µM, first compound 3.16 µM
[30] = second compound 3.16 µM, first compound 10 µM
[31] = second compound 10 µM, first compound 0.0316 µM
[32] = second compound 10 µM, first compound 0.1 µM
[33] = second compound 10 µM, first compound 0.316 µM
[34] = second compound 10 µM, first compound 1 µM
[35] = second compound 10 µM, first compound 3.16 µM
[36] = second compound 10 µM, first compound 10 µM
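Note: spheroids exposed to compounds for seven days before readout.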
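Throughout, for viability, T/C: 100% = DMSO vehicle control viability.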

In the case of C#Cc1c(F)ccc2cc(O)cc(-c3ncc4c(N5CC6CCC(C5)N6)nc(OCC56CCCN5CC(F)C6)nc4c3F)c12 (centres undefined) + Nc1ccc(C#CCN(C(=O)Cc2ncc(C(F)(F)F)cc2C(F)(F)F)c2ccc(F)cc2)nn1, the IC50 (second compound 0.0316 µM) is reported as greater than 10 µM, the IC50 (second compound 0.1 µM) is reported as greater than 10 µM and the IC50 (second compound 0.316 µM) is reported as greater than 10 µM. For the same molecule, the IC50 (second compound 1 µM) was greater than 10 µM, the IC50 (second compound 3.16 µM) was greater than 10 µM and the IC50 (second compound 10 µM) was greater than 10 µM. The viability, T/C [1] was 82%, the viability, T/C [2] was 92.8% and the viability, T/C [3] was 97.7%. The viability, T/C [4] was 90.3%, the viability, T/C [5] was 71.7% and the viability, T/C [6] was 75.1%. The viability, T/C [7] was 100%, the viability, T/C [8] was 98.5% and the viability, T/C [9] was 90.6%. The viability, T/C [10] was 93.7%, the viability, T/C [11] was 93% and the viability, T/C [12] was 81%. It also gave a viability, T/C [13] of 86.8%, a viability, T/C [14] of 84.2% and a viability, T/C [15] of 87.8%. It also gave a viability, T/C [16] of 78.7%, a viability, T/C [17] of 82.1% and a viability, T/C [18] of 84.8%. The viability, T/C [19] was 108%, the viability, T/C [20] was 87.7% and the viability, T/C [21] was 84.7%. It also gave a viability, T/C [22] of 77.9%, a viability, T/C [23] of 82.2% and a viability, T/C [24] of 80.1%. The viability, T/C [25] was 91.1%, the viability, T/C [26] was 89.7% and the viability, T/C [27] was 89.1%. For the same molecule, the viability, T/C [28] was 101%, the viability, T/C [29] was 102% and the viability, T/C [30] was 88.1%. It also gave a viability, T/C [31] of 102%, a viability, T/C [32] of 109% and a viability, T/C [33] of 113%. The viability, T/C [34] was 108%, the viability, T/C [35] was 99.3% and the viability, T/C [36] was 102%.
For O=C(Nc1ccc(O)c(NS(=O)(=O)c2ccc(F)cc2)c1)c1ccc(-c2ccccc2)cc1 + Nc1ccc(C#CCN(C(=O)Cc2ncc(C(F)(F)F)cc2C(F)(F)F)c2ccc(F)cc2)nn1, the IC50 (second compound 0.0316 µM) was greater than 10 µM, the IC50 (second compound 0.1 µM) was greater than 10 µM and the IC50 (second compound 0.316 µM) was greater than 10 µM. It also gave an IC50 (second compound 1 µM) greater than 10 µM, an IC50 (second compound 3.16 µM) greater than 10 µM and an IC50 (second compound 10 µM) greater than 10 µM. It also gave a viability, T/C [1] of 91.5%, a viability, T/C [2] of 92.5% and a viability, T/C [3] of 102%. It also gave a viability, T/C [4] of 82.8%, a viability, T/C [5] of 79.3% and a viability, T/C [6] of 71%. For the same molecule, the viability, T/C [7] was 106%, the viability, T/C [8] was 104% and the viability, T/C [9] was 90.1%. The viability, T/C [10] was 84.1%, the viability, T/C [11] was 88.4% and the viability, T/C [12] was 70.1%. For the same molecule, the viability, T/C [13] was 90.4%, the viability, T/C [14] was 102% and the viability, T/C [15] was 97.6%. For the same molecule, the viability, T/C [16] was 85.5%, the viability, T/C [17] was 81.7% and the viability, T/C [18] was 72.5%. It also gave a viability, T/C [19] of 91.8%, a viability, T/C [20] of 95.4% and a viability, T/C [21] of 96.3%. The viability, T/C [22] was 84.3%, the viability, T/C [23] was 87.9% and the viability, T/C [24] was 66.1%. It also gave a viability, T/C [25] of 101%, a viability, T/C [26] of 101% and a viability, T/C [27] of 104%. It also gave a viability, T/C [28] of 88.1%, a viability, T/C [29] of 86.5% and a viability, T/C [30] of 72.2%. For the same molecule, the viability, T/C [31] was 116%, the viability, T/C [32] was 108% and the viability, T/C [33] was 115%. For the same molecule, the viability, T/C [34] was 97.8%, the viability, T/C [35] was 117% and the viability, T/C [36] was 72.6%.
